Results as given in the supplement of paper PMC10307832.

What was measured:
Assay in all cases: relative viability (nuclei count vs DMSO), 5 days (fraction); higher = more cells survive
[1] = test system: A-427
In short: (§1)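 For relative viability, nuclei counts in treated wells were divided by those in vehicle wells. Lung cancer cell lines had been pin-tool dosed in 1536-well plates the day after seeding and cultured for 5 days, then fixed and stained in one step (final 0.05% Triton X-100, 1% formaldehyde, 1 ug/ml Hoechst) and imaged at 4×. Doses were one drug alone or a fixed anchor-drug dose plus five library-drug doses (not always all listed) in √10 steps, and values are duplicate-plate medians.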

[2] = test system: HCC-15
In short: as §1

[3] = test system: HCC-78
In short: as §1

[4] = test system: HOP-62
In short: as §1

[5] = test system: LC-2-ad
In short: as §1

[6] = test system: LOU-NH91
In short: as §1

[7] = test system: LXF-289
In short: as §1

[8] = test system: NCI-H1734
In short: as §1

[9] = test system: NCI-H1755
In short: as §1

[10] = test system: NCI-H1792
In short: as §1

[11] = test system: NCI-H1915
In short: as §1

[12] = test system: NCI-H1975
In short: as §1

[13] = test system: NCI-H2126
In short: as §1

[14] = test system: NCI-H2228
In short: as §1

[15] = test system: NCI-H2342
In short: as §1

[16] = test system: NCI-H2347
In short: as §1

[17] = test system: NCI-H358
In short: as §1

[18] = test system: NCI-H460
In short: as §1

[19] = test system: NCI-H522
In short: as §1

[20] = test system: NCI-H647
In short: as §1

[21] = test system: PC-3 [JPC-3]
In short: as §1

[22] = test system: RERF-LC-KJ
In short: as §1

[23] = test system: SK-LU-1
In short: as §1

[24] = test system: SW 1573
In short: as §1

CC(C)Oc1cc(Nc2nc(N[C@@H](C)c3ccc(F)cn3)ncc2Cl)n[nH]1 [AZ23] + O=C(c1cc(Cc2n[nH]c(=O)c3ccccc23)ccc1F)N1CCN(C(=O)C2CC2)CC1 [Olaparib] (partner 8 µM)
relative viability ([1]; first compound 0.01 µM): 0.82 | relative viability ([1]; first compound 0.03162 µM): 0.885 | relative viability ([1]; first compound 0.3162 µM): 0.856 | relative viability ([2]; first compound 0.01 µM): 1.02 | relative viability ([2]; first compound 0.03162 µM): 0.698 | relative viability ([2]; first compound 0.3162 µM): 0.747 | relative viability ([3]; first compound 0.01 µM): 0.623 | relative viability ([3]; first compound 0.03162 µM): 0.834 | relative viability ([3]; first compound 0.3162 µM): 0.669 | relative viability ([4]; first compound 0.03162 µM): 0.477 | relative viability ([4]; first compound 0.3162 µM): 0.379 | relative viability ([5]; first compound 0.01 µM): 0.811 | relative viability ([5]; first compound 0.03162 µM): 0.772 | relative viability ([5]; first compound 0.3162 µM): 0.824 | relative viability ([6]; first compound 0.01 µM): 0.958 | relative viability ([6]; first compound 0.03162 µM): 0.961 | relative viability ([6]; first compound 0.3162 µM): 0.94 | relative viability ([7]; first compound 0.01 µM): 1.39 | relative viability ([7]; first compound 0.03162 µM): 1.14 | relative viability ([7]; first compound 0.3162 µM): 1.1 | relative viability ([8]; first compound 0.01 µM): 0.628 | relative viability ([8]; first compound 0.03162 µM): 0.673 | relative viability ([8]; first compound 0.3162 µM): 0.6 | relative viability ([9]; first compound 0.01 µM): 0.962 | relative viability ([9]; first compound 0.03162 µM): 0.955 | relative viability ([9]; first compound 0.3162 µM): 1 | relative viability ([10]; first compound 0.01 µM): 0.27 | relative viability ([10]; first compound 0.03162 µM): 0.594 | relative viability ([10]; first compound 0.3162 µM): 0.373 | relative viability ([11]; first compound 0.01 µM): 0.259 | relative viability ([11]; first compound 0.03162 µM): 0.253 | relative viability ([11]; first compound 0.3162 µM): 0.275 | relative viability ([12]; first compound 0.01 µM): 0.88 | relative viability ([12]; first compound 0.03162 µM): 0.904 | relative viability ([12]; first compound 0.3162 µM): 0.822 | relative viability ([13]; first compound 0.01 µM): 0.996 | relative viability ([13]; first compound 0.03162 µM): 0.924 | relative viability ([13]; first compound 0.3162 µM): 0.888 | relative viability ([14]; first compound 0.01 µM): 0.53 | relative viability ([14]; first compound 0.03162 µM): 0.775 | relative viability ([14]; first compound 0.3162 µM): 0.589 | relative viability ([15]; first compound 0.01 µM): 0.413 | relative viability ([15]; first compound 0.03162 µM): 0.473 | relative viability ([15]; first compound 0.3162 µM): 0.399 | relative viability ([16]; first compound 0.01 µM): 0.579 | relative viability ([16]; first compound 0.03162 µM): 0.622 | relative viability ([16]; first compound 0.3162 µM): 0.604 | relative viability ([17]; first compound 0.01 µM): 0.72 | relative viability ([17]; first compound 0.03162 µM): 0.667 | relative viability ([17]; first compound 0.3162 µM): 0.664 | relative viability ([18]; first compound 0.01 µM): 0.24 | relative viability ([18]; first compound 0.03162 µM): 0.518 | relative viability ([18]; first compound 0.3162 µM): 0.481 | relative viability ([19]; first compound 0.01 µM): 0.667 | relative viability ([19]; first compound 0.03162 µM): 0.598 | relative viability ([19]; first compound 0.3162 µM): 0.641 | relative viability ([20]; first compound 0.01 µM): 0.68 | relative viability ([20]; first compound 0.03162 µM): 0.687 | relative viability ([20]; first compound 0.3162 µM): 0.812 | relative viability ([21]; first compound 0.01 µM): 1.35 | relative viability ([21]; first compound 0.03162 µM): 1.41 | relative viability ([21]; first compound 0.3162 µM): 1.17 | relative viability ([22]; first compound 0.01 µM): 1.06 | relative viability ([22]; first compound 0.03162 µM): 0.875 | relative viability ([22]; first compound 0.3162 µM): 0.917 | relative viability ([23]; first compound 0.03162 µM): 0.564 | relative viability ([23]; first compound 0.3162 µM): 0.47 | relative viability ([24]; first compound 0.01 µM): 0.649 | relative viability ([24]; first compound 0.03162 µM): 0.613 | relative viability ([24]; first compound 0.3162 µM): 0.508
